Like-named read-outs stand apart in the source and are kept apart here.
What was measured:
TRPM8 = molecular target: T1, TRPM8 (Homo sapiens, UniProt Q7Z2W7); test: Calcium mobilization assay (HTS and dose-response) on HEK-293/hTRPM8 cells; format: cell-based; settings: for IC50: calcium mobilization
T1 construct: expressed in transfected cells
Method: All experiments were performed on HEK-293/hTRPM8 cells stably transfected with the human TRPM8 gene, except for site-directed mutagenesis analysis, which was performed on transient transfectants. In details, HEK-293 cells (ATCC, Manassas, Virginia) were transfected with the pcDNA3/hTRPM8 vector by electroporation (300 Volts, 950 µF) then selected with medium containing 0,8 mg/ml G418 for 10–15 days. Then the stable transfected pool underwent two rounds of limiting dilutions, in eight 96 well plates at a cell density of 1 cell/well, in order to obtain pure clones. The best responder clone was selected based on its response to 1 mM menthol in calcium mobilization experiments. HEK-293/hTRPM8 cells were maintained in EMEM (Minimum Essential Medium Eagle with Earl’s salts Balanced Salt Solution, LONZA) supplemented with 2 mM Ultraglutamine1 (Lonza), 1% Penicillin/Streptomycin (LONZA), 10% of Fetal Bovine Serum (Euroclone) and 0,4 mg/mL G418 (InvivoGen).
For calcium mobilization assays, cells were seeded at 10,000 cells/well in 384-well plates coated with poly-D-lysine (MATRIX black/clear bottom #4332-CPL, Thermo Scientific, Waltham, MA, USA) in complete medium.Twenty-four hours after seeding, the plates were washed with Tyrode’s buffer with a Bio-Tek-ELx405 Microplate Washer (Merck Millipore; Billerica, MA, USA), and then 10 µl/well of a solution containing the fluorescent Ca^2+ indicator Fluo-4 NW dye was added. Cells were incubated for 1 h at room temperature before test compounds were added at 3X the concentration with respect to the final wanted concentration to be tested with a FLIPR TETRA system (Molecular Devices, Sunnyvale, CA, USA). Calcium mobilization was monitored over a period of 5 min. A second injection of 10 µl/well of a reference agonist (icilin or Cooling agent 10) at 4X concentration in assay buffer was performed using the FLIPR TETRA system. Of note, for selectivity assays, the following agonists were used: 10 μM AITC (allyl isothiocyanate) for TRPA1; 100 nM Capsaicin for TRPV1; and 20 nM GSK1016790A for TRPV4.
After addition of the agonist, the fluorescence signal was recorded over the next 3 min. The bioactivity exerted by the compounds was expressed as a percentage of inhibition. The percentage scale is defined as follows: 100% inhibition was considered as the relative fluorescence units (RFUs) of the value of the MIN controls in the second injection (antagonist Capsazepine at IC100 = 50 µM) and 0% inhibition was considered as the RFU values of the value of the MAX controls in the second injection (Cooling agent 10 at EC80 = 30 µM). Data from four replicates were analyzed using GraphPad PRISM® software (version 5, GraphPad Software Inc.) to calculate the mean and standard error of the mean, to create sigmoidal concentration-response curves and to calculate IC50 values.

TRPM8 N799A = molecular target: T2, TRPM8 N799A (Homo sapiens, UniProt Q7Z2W7, N799A); test: Calcium mobilization on transiently transfected TRPM8 N799A mutant; format: cell-based; settings: Cooling agent 10 at EC80, N799A; read-out: pIC50, inhibition of Cooling agent 10 activation, N799A (converted)
T2 construct: expressed in transfected cells; host or cells: HEK-293, transient (Lipofectamine 2000)
T2 sequence (Q7Z2W7 whole entry N799A): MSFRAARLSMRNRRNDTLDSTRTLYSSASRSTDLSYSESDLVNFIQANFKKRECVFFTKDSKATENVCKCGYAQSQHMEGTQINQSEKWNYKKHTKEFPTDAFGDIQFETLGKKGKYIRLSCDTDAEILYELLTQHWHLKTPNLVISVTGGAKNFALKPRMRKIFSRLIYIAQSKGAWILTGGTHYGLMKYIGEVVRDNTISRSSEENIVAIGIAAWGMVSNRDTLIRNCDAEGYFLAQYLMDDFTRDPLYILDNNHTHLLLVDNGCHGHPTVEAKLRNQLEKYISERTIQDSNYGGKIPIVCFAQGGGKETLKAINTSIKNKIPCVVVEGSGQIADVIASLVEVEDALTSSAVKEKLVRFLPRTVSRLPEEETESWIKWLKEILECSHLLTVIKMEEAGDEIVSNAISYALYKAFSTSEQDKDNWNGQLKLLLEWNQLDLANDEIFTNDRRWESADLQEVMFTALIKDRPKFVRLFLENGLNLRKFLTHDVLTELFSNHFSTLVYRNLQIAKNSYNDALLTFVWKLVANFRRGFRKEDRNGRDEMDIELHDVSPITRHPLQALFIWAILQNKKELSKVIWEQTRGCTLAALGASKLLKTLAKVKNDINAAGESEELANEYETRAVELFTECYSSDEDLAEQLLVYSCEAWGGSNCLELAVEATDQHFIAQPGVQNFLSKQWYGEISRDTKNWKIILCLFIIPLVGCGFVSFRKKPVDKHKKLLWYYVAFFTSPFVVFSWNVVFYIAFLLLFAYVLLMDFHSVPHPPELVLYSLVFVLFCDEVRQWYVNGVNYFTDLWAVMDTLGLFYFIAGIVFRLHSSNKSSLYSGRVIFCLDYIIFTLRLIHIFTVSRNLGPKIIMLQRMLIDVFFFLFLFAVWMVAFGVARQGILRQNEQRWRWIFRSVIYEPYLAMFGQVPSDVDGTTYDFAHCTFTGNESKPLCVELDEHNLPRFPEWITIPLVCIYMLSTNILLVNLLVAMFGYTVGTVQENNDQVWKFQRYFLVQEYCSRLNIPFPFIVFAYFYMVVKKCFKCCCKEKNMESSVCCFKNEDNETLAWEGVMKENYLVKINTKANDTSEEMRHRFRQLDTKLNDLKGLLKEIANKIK
Excerpt: Single point mutations were introduced in the hTRPM8-coding sequence, and the mutated TRPM8 was cloned as N-terminal c-myc tagged version into the pcDNA3 expression vector. This was done in that way that the single variations could be easily swapped from the myc-tagged expression construct into the non-tagged TRPM8 wild type expression construct.
The list of the variants is the following: variant 1, t2233g, a2234c (=Y745A); variant 2, a2236g, t2237c (=I746A); variant 3, a2395g, a2396c (=N799A) and variant 4, a2405c (D802A). The cloning project comprised three steps. First of all, a unique XhoI restriction site was inserted by site-directed mutagenesis (SDM) using DNA of the pcDNA3_TRPM8 construct as template. The 0.6 kb DNA fragment between the unique 5′ XhoI (introduced) and 3′ BamHI (already present) restriction sites comprised all positions of the four single point mutations and could be later used for their insertion as well as swapping between myc-tagged and non-tagged TRPM8 versions. In a second step, the c-myc tag sequence was introduced embedded within the TRPM8 coding sequence by PCR primers in two partially overlapping PCRs that were then joined by bridge PCR with the external 5′KpnI and internal 3′EcoRI primers and in the last step the point mutations 1 to 4 were inserted into pcDNA3_c-myc-TRPM8 by exchanging the wild type 5′XhoI-3′BamHI fragment (0.6 kb) with each of the corresponding variation fragment derived from synthetic DNA (provided by GeneArt, ThermoFisher Scientific).The myc-tagged constructs were transiently transfected in HEK-293 cells with Lipofectamine 2000 (Invitrogen) according to the manufacturer’s protocol. The pcDNA vectors containing the wt myc-tagged TRPM8 gene and the empty pcDNA3 (mock) were separately transfected into HEK-293 cells as controls. Cells were transfected and seeded on the same day at 17,500 cells/well in poly-D-lysine-coated 384-well plates (MATRIX #4332-CPL). Twenty-four hours after seeding, the activity of transfected TRPM8 receptors was tested using the calcium mobilization assay as described above. The analysis was performed on the basis of ΔF/F° (normalized MAX-MIN), where ΔF is the MAX between time points 117 and 182 minus the MIN between time points TP114 and TP116, and F° is the basal signal at time point TP0. The obtained data from at least four wells (as replicates) were analyzed with GraphPad PRISM® software (version 5, GraphPad Software Inc.) to calculate the mean and standard error of the mean[58], to create sigmoidal concentration-response curves and to calculate IC50 values.

T1 sequence (Q7Z2W7 whole entry): as the sequence (Q7Z2W7 whole entry N799A) above, with A799N counted along it

pIC50 (TRPM8; HTS campaign activity determination, Fig. 4): 7.15
IC50 (TRPM8; agonist Cooling agent 10, read-out: pIC50 with Cooling agent 10 (converted)): 41.7 nM
IC50 (TRPM8; agonist icilin, read-out: pIC50 with icilin (converted)): 58.9 nM
IC50 (TRPM8 N799A): 10 nM
Structure (SMILES): Clc1c(OCCNCc2ccco2)ccc2ccccc12 [Compound 1]
